Results: US8921307B2, “Synthetic linear apelin mimetics for the treatment of heart failure” (priority 2012, dated 2014)
Where a SMILES comes first, the peptide text is derived from it. [ ]: non-standard residue; d: D form. Phe(3,4-Cl2) = N[C@@H](Cc1ccc(Cl)c(Cl)c1)C(=O)O; pGlu = O=C1CC[C@@H](C(=O)O)N1; dNle = CCCC[C@@H](N)C(=O)O; Nle = CCCC[C@H](N)C(=O)O; Aib = CC(C)(N)C(=O)O

How the values were obtained:
hAPJ = molecular target: T1, hAPJ (Homo sapiens, UniProt P35414); experiment: hAPJ Calcium Flux Assay; assay type: cell-based; conditions: Chem-5 APJ stable cells, FLIPR calcium flux stimulation; read-out: hAPJ Ca^2+ Flux EC50
T1 sequence (P35414 1-380): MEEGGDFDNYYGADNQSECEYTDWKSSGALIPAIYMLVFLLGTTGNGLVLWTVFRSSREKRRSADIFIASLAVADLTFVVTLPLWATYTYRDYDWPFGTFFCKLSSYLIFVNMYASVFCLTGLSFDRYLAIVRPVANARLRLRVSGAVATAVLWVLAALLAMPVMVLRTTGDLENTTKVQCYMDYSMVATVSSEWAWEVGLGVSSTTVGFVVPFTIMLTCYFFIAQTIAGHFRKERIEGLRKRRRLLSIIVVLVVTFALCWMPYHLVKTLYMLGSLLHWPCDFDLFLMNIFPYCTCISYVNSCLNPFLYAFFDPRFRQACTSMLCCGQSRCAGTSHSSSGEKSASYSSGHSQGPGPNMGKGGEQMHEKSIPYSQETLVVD
Procedure: Chem-5 APJ stable cells (Millipore # HTS068C) were plated in 384-well format with 10,000 cells/well in 25 ul growth media, then grown 24 hours in a 37° C. tissue culture incubator. One hour before the assay, 25 ul/well FLIPR Calcium 4 dye (Molecular Devices R8142) with 2.5 mM probenecid was added, and cells were incubated one hour in a 37° C. tissue culture incubator. Peptides were solubilized in HBSS, HEPES & 0.1% BSA buffer, and serially-diluted 10-fold, from 50 uM to […], in triplicate. FLIPR Tetra was used to add peptide to the cells with dye (1:5, for final peptide concentrations ranging from 10 uM to […]). FLIPR dye inside the cells emitted fluorescence after binding to calcium, while fluorescence from outside the cells was masked. Fluorescence was measured using 470-495 excitation and 515-575 emission wavelengths on the FLIPR Tetra. Readings were done for 3 minutes total, beginning 10 seconds before the peptide addition. Maximum-minimum values were calculated and plotted for each peptide concentration, and GraphPad prism software was used to calculate EC50 values at the curve inflection points, for calcium flux stimulation by peptides.

[1] = Surrogate Activity-Based Plasma Stability Assay; assay type: in vitro ADME; conditions: rat, Surrogate activity-based Plasma stability t½
Procedure: Stability half-life was then calculated by the formula, t½=0.693÷k Surrogate Activity-Based Plasma Stability Assay: […]
2) Calculate slope of value above and […]

SMILES	EC50 (hAPJ) [nM]	half-life [1] [h]
CCCC[C@@H](NC(=O)[C@@H]1CCCN1C(=O)CNC(=O)[C@H](CCCCN)NC(=O)[C@@H](C)NC(=O)[C@H](CO)NC(=O)[C@@H](CC(C)C)NC(=O)[C@H](CCCNC(=N)N)NC(=O)[C@@H]1CCCN1C(=O)[C@H](CCCNC(=N)N)NC(=O)[C@@H]1CCC(=O)N1)C(=O)N[C@H](C)C(=O)N[C@H](Cc1ccccc1)C(=O)O [Example 2, pE-R-P-R-(D-Leu)-S-a-K-G-P-nle-a-f-OH] ([pGlu]RPR[dL]S[dA]KGP[dNle][dA][dF]-OH)	386	> 16.7
CCCC[C@@H](NC(=O)[C@@H]1CCCN1C(=O)CNC(=O)[C@@H](CCCCN)NC(=O)C(C)(C)NC(=O)[C@H](CO)NC(=O)[C@H](CC(C)C)NC(=O)[C@H](CCCNC(=N)N)NC(=O)[C@@H]1CCCN1C(=O)[C@H](CCCNC(=N)N)NC(=O)[C@@H]1CCC(=O)N1)C(=O)N[C@H](C)C(=O)N[C@H](Cc1ccccc1)C(=O)O [Example 5, pE-R-P-R-L-S-Aib-k-G-P-nle-a-f-OH] ([pGlu]RPRLS[Aib][dK]GP[dNle][dA][dF]-OH)	79.9	> 16.7
CCCC[C@@H](NC(=O)[C@@H]1CCCN1C(=O)CNC(=O)[C@H](CCCCN)NC(=O)[C@H](Cc1c[nH]cn1)NC(=O)[C@@H](C)NC(=O)[C@H](CC(C)C)NC(=O)[C@H](CCCNC(=N)N)NC(=O)[C@@H]1CCCN1C(=O)[C@H](CCCNC(=N)N)NC(=O)[C@@H]1CCC(=O)N1)C(=O)N[C@H](CCCNC(=N)N)C(=O)N[C@H](Cc1ccccc1)C(=O)O [Example 20, pE-R-P-R-L-a-H-K-G-P-nle-r-f-OH] ([pGlu]RPRL[dA]HKGP[dNle][dR][dF]-OH)	922	> 16.7
CCCC[C@@H](NC(=O)[C@@H]1CCCN1C(=O)CNC(=O)[C@H](CCCCN)NC(=O)[C@H](Cc1c[nH]cn1)NC(=O)[C@@H](CCCCN)NC(=O)[C@H](CC(C)C)NC(=O)[C@H](CCCNC(=N)N)NC(=O)[C@@H]1CCCN1C(=O)[C@H](CCCNC(=N)N)NC(=O)[C@@H]1CCC(=O)N1)C(=O)N[C@H](C)C(=O)N[C@H](Cc1ccccc1)C(=O)O [Example 11, pE-R-P-R-L-k-H-K-G-P-nle-a-f-OH] ([pGlu]RPRL[dK]HKGP[dNle][dA][dF]-OH)	1060	> 16.7
CCCC[C@@H](NC(=O)[C@@H]1CCCN1C(=O)[C@H](CC(=O)O)NC(=O)[C@H](CCCCN)NC(=O)[C@H](Cc1c[nH]cn1)NC(=O)[C@@H](C)NC(=O)[C@H](CC(C)C)NC(=O)[C@H](CCCNC(=N)N)NC(=O)[C@@H]1CCCN1C(=O)[C@H](CCCNC(=N)N)NC(=O)[C@@H]1CCC(=O)N1)C(=O)N[C@H](C)C(=O)N[C@H](Cc1ccccc1)C(=O)O [Example 62, pE-R-P-R-L-a-H-K-D-P-nle-a-f-OH] ([pGlu]RPRL[dA]HKDP[dNle][dA][dF]-OH)	95.9	7.9
CCCC[C@@H](NC(=O)[C@@H]1CCCN1C(=O)CNC(=O)[C@H](CCCCN)NC(=O)[C@H](Cc1c[nH]cn1)NC(=O)[C@@H](C)NC(=O)[C@H](Cc1ccc(Cl)c(Cl)c1)NC(=O)[C@H](CCCNC(=N)N)NC(=O)[C@@H]1CCCN1C(=O)[C@H](CCCNC(=N)N)NC(=O)[C@@H]1CCC(=O)N1)C(=O)N[C@H](C)C(=O)N[C@H](Cc1ccccc1)C(=O)O [Example 24, pE-R-P-R-(3,4-Cl2-F)-a-H-K-G-P-nle-a-f-OH] ([pGlu]RPR[Phe(3,4-Cl2)][dA]HKGP[dNle][dA][dF]-OH)	13.8	0.958
CCCC[C@H](NC(=O)[C@@H]1CCCN1C(=O)CNC(=O)[C@H](CCCCN)NC(=O)[C@H](Cc1c[nH]cn1)NC(=O)[C@@H](C)NC(=O)[C@H](CC(C)C)NC(=O)[C@H](CCCNC(=N)N)NC(=O)[C@@H]1CCCN1C(=O)[C@H](CCCNC(=N)N)NC(=O)[C@@H]1CCC(=O)N1)C(=O)N[C@H](C)C(=O)N[C@@H](Cc1ccccc1)C(=O)O [Example 39, pE-R-P-R-L-a-H-K-G-P-Nle-a-F-OH]	4.5	14.8
CCCC[C@@H](NC(=O)[C@@H]1CCCN1C(=O)CNC(=O)[C@H](CCCCN)NC(=O)[C@H](Cc1c[nH]cn1)NC(=O)[C@@H](C)NC(=O)[C@H](CC(C)C)NC(=O)[C@H](CCCNC(=N)N)NC(=O)[C@@H]1CCCN1C(=O)[C@H](CCCNC(=N)N)NC(=O)[C@@H]1CCC(=O)N1)C(=O)NCCc1ccccc1 [Example 32, pE-R-P-R-L-a-H-K-G-P-nle-NH(Phenethyl)]		0.795

Now from value to compound:

EC50 (hAPJ) [nM]	half-life [1] [h]	SMILES
3.3	> 16.7	CCCC[C@H](NC(=O)[C@@H]1CCCN1C(=O)CNC(=O)[C@H](CCCCN)NC(=O)C(C)(C)NC(=O)[C@H](CO)NC(=O)[C@H](CC(C)C)NC(=O)[C@H](CCCNC(=N)N)NC(=O)[C@@H]1CCCN1C(=O)[C@H](CCCNC(=N)N)NC(=O)[C@@H]1CCC(=O)N1)C(=O)N[C@H](C)C(=O)N[C@H](Cc1ccccc1)C(=O)O [Example 38, pE-R-P-R-L-S-Aib-K-G-P-Nle-a-f-OH] ([pGlu]RPRLS[Aib]KGP[Nle][dA][dF]-OH)
1.4	0.183	CCCC[C@@H](NC(=O)[C@@H]1CCCN1C(=O)CNC(=O)[C@H](CCCCN)NC(=O)[C@H](Cc1c[nH]cn1)NC(=O)[C@@H](C)NC(=O)[C@H](CC(C)C)NC(=O)[C@H](CCCNC(=N)N)NC(=O)[C@@H]1CCCN1C(=O)[C@@H](N)CCCNC(=N)N)C(=O)N[C@H](Cc1ccccc1)C(=O)O [Example 50, H-R-P-R-L-a-H-K-G-P-nle-f-OH] (H-RPRL[dA]HKGP[dNle][dF]-OH)
2	> 16.7	CCCC[C@@H](NC(=O)[C@@H]1CCCN1C(=O)CNC(=O)[C@H](CCCCN)NC(=O)C(C)(C)NC(=O)[C@H](CO)NC(=O)[C@H](CC(C)C)NC(=O)[C@H](CCCNC(=N)N)NC(=O)[C@@H]1CCCN1C(=O)[C@H](CCCNC(=N)N)NC(=O)[C@@H]1CCC(=O)N1)C(=O)N[C@H](C)C(=O)N[C@H](Cc1ccccc1)C(=O)O [Example 40, pE-R-P-R-L-S-Aib-K-G-P-nle-a-f-OH] ([pGlu]RPRLS[Aib]KGP[dNle][dA][dF]-OH)
1.5	> 16.7	CC(C)C[C@H](NC(=O)[C@H](CCCNC(=N)N)NC(=O)[C@@H]1CCCN1C(=O)[C@H](CCCNC(=N)N)NC(=O)[C@@H]1CCC(=O)N1)C(=O)N[C@H](C)C(=O)N[C@@H](Cc1c[nH]cn1)C(=O)N[C@@H](CCCCN)C(=O)NCC(=O)N1CCC[C@H]1C(=O)N[C@H](Cc1ccccc1)C(=O)N[C@H](C)C(=O)N[C@H](Cc1ccccc1)C(=O)O [Example 57, pE-R-P-R-L-a-H-K-G-P-f-a-f-OH] ([pGlu]RPRL[dA]HKGP[dF][dA][dF]-OH)
4.4	> 16.7	CCCC[C@@H](NC(=O)[C@@H]1CCCN1C(=O)CNC(=O)[C@H](CCCCN)NC(=O)[C@H](CC(C)C)NC(=O)[C@@H](C)NC(=O)[C@H](CC(C)C)NC(=O)[C@H](CCCNC(=N)N)NC(=O)[C@@H]1CCCN1C(=O)[C@H](CCCNC(=N)N)NC(=O)[C@@H]1CCC(=O)N1)C(=O)N[C@H](C)C(=O)N[C@H](Cc1ccccc1)C(=O)O [Example 47, pE-R-P-R-L-a-L-K-G-P-nle-a-f-OH] ([pGlu]RPRL[dA]LKGP[dNle][dA][dF]-OH)
3.9	8.72	CCCC[C@@H](NC(=O)[C@@H]1CCCN1C(=O)CNC(=O)[C@H](CCCCN)NC(=O)C(C)(C)NC(=O)[C@H](CO)NC(=O)[C@H](CC(C)C)NC(=O)[C@H](CCCNC(=N)N)NC(=O)[C@@H]1CCCN1C(=O)[C@H](CCCNC(=N)N)NC(=O)[C@@H]1CCC(=O)N1)C(=O)N[C@H](C)C(=O)N[C@@H](Cc1ccccc1)C(=O)O [Example 37, pE-R-P-R-L-S-Aib-K-G-P-nle-a-F-OH] ([pGlu]RPRLS[Aib]KGP[dNle][dA]F-OH)
3.1	> 16.7	CCCC[C@@H](NC(=O)[C@@H]1CCCN1C(=O)CNC(=O)[C@H](CCCCN)NC(=O)[C@H](Cc1c[nH]cn1)NC(=O)[C@@H](C)NC(=O)[C@H](CC(C)C)NC(=O)[C@H](CCCNC(=N)N)NC(=O)[C@@H]1CCCN1C(=O)[C@H](CCCNC(=N)N)NC(=O)[C@@H]1CCC(=O)N1)C(=O)N[C@H](Cc1ccccc1)C(=O)O [Example 6, pE-R-P-R-L-a-H-K-G-P-nle-f-OH]
2.3	> 16.7	CCCC[C@@H](NC(=O)[C@@H]1CCCCN1C(=O)CNC(=O)[C@H](CCCCN)NC(=O)[C@H](Cc1c[nH]cn1)NC(=O)[C@@H](C)NC(=O)[C@H](CC(C)C)NC(=O)[C@H](CCCNC(=N)N)NC(=O)[C@@H]1CCCN1C(=O)[C@H](CCCNC(=N)N)NC(=O)[C@@H]1CCC(=O)N1)C(=O)N[C@H](C)C(=O)N[C@H](Cc1ccccc1)C(=O)O [Example 1, pE-R-P-R-L-a-H-K-G-Pip-nle-a-f-OH]
3	9.25	CCCC[C@@H](NC(=O)[C@@H]1CCCN1C(=O)CNC(=O)[C@H](CCCCN)NC(=O)[C@H](Cc1c[nH]cn1)NC(=O)[C@@H](CC)NC(=O)[C@H](CC(C)C)NC(=O)[C@H](CCCNC(=N)N)NC(=O)[C@@H]1CCCN1C(=O)[C@H](CCCNC(=N)N)NC(=O)[C@@H]1CCC(=O)N1)C(=O)N[C@H](C)C(=O)N[C@H](Cc1ccccc1)C(=O)O [Example 44, pE-R-P-R-L-abu-H-K-G-P-nle-a-f-OH]
